Values quoted from earlier work, collected in US9421268B2, “Pediatric oral liquid compositions containing nepadutant” (LABORATORI GUIDOTTI S.P.A., priority 2012, dated 2016).
Bridge positions count the residues as written; N and C are the ends. Square brackets hold non-standard residues; d marks the D form. Peptide text beside a SMILES is read from it. * marks the point of attachment. NH(β-GlcNAc) = CC(=O)N[C@@H]1[C@@H](O)[C@H](O)[C@@H](CO)O[C@H]1N*; Dap = NC[C@H](N)C(=O)O

Assays:
hyperalgesia = conditions: new born rats; cited from earlier work
[1] = in vivo; cited from earlier work
NK2 receptors = target: T1, NK2 receptors (Rattus norvegicus, UniProt P16610); conditions: oral, new born rats, basal parameters not altered; cited from earlier work
T1 construct: from tissue; host or cells: intestine of new born rats (in vivo)
T1 sequence (P16610 1-390): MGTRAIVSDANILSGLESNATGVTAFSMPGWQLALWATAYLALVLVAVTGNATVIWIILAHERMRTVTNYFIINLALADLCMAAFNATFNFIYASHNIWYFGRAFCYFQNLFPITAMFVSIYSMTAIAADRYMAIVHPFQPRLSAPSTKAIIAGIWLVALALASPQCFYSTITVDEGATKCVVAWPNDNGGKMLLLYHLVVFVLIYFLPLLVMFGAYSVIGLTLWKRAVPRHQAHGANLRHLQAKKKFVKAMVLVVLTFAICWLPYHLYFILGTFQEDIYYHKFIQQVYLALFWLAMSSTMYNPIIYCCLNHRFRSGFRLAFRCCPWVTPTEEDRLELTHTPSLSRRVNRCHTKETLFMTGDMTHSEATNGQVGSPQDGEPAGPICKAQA

Structure (SMILES): CC(=O)N[C@@H]1[C@@H](O)[C@H](O)[C@@H](CO)O[C@H]1NC(=O)C[C@@H]1NC(=O)[C@H](CC(C)C)NC(=O)[C@@H]2CNC(=O)C[C@H](NC1=O)C(=O)N[C@@H](Cc1c[nH]c3ccccc13)C(=O)N[C@@H](Cc1ccccc1)C(=O)N2 [Nepadutant, [N^4-(2-acetylamino-2-deoxy-β-D-glucopyranosyl)-L-asparaginyl-L-α-triptophan-L-phenylalanyl-L-2,3-diaminopropio-nil-L-leucil]-C-4.2-N-3.5-lattame-C-1.6-N-2.1-lattame] (cyclo(D(NH(β-GlcNAc))DWF[Dap]L); lactam 2-5)
- efficacy in a model of hyperalgesia (hyperalgesia): effective
- oral absorption [1]: absorbed
- time after administration up to which the increase in intestinal transit is blocked (NK2 receptors): up to 24 hours
